Assay [1] concerns S30 extracts derived from all three Gram-positives. The assay can be described thus: In vitro coupled T/T assay, for all three Gram-positive S30 extracts. Format: biochemical, S. aureus, S. pneumoniae, E. faecalis. The note with it: at high concentrations.
Experimental: To validate the in vitro coupled T/T assay for screening of potential inhibitors of transcription and translation several antibiotics of known mode of action were tested.
For assay [2], the system named is S30 extracts from E. faecalis 27263. The assay can be described thus: Gram-positive in vitro coupled transcription/translation (T/T) assay, E. faecalis S30 extract. Type of assay: biochemical. The procedure:
E. faecalis 26273 was grown overnight in 250 ml BHI medium containing 2% bovine serum at 37° C. under microaerophilic conditions. The overnight culture was used to inoculate 4.8 1 BHI medium, cells were incubated at 37° C. under microaerophilic conditions with agitation (170 rpm) until an OD600 nm of ˜1.6 was reached. Preparation of S30 extracts was done as described for S. aureus with the following exceptions. Cells were harvested and washed at 7000×g at 4° C. for 12 min and resuspended in 100 ml S30-buffer B. For cell lysis 15 mg lysozyme resuspended in 1 ml S30-buffer B were added and incubated for 2 h at 37° C. with agitation. To complete cell lysis extracts were passed once through a French Press at 600 psi.
(§1) The final assay volume was 59 μl. Inhibitor (3 μl dissolved in 10% DMSO), plasmid DNA (10 μl of optimal concentration in water pH 8.0) and 46 μl S30 extract [optimal concentration in 23 μl premixed with 23 μl incubation buffer (0.5 M potassium acetate, 87.5 mM Tris/acetate pH 8.0, 67.5 mM ammonium acetate, 50 μg/ml folinic acid, 5 mM DTT, 87.5 mg/ml polyethylene glycol 8000, 5 mM ATP; 1.25 mM of each CTP, GTP and UTP; 0.02 mM amino acids, 50 mM phosphoenolpyruvate trisodium salt, 2.5 mM cyclic AMP, 250 μg of each E. coli tRNA/ml) were added and incubated at 30° C. for 1 h. When using pT7-FF as a template 0.05 μl or 0.1 μl (50 U/μl) T7-RNA-Polymerase (Gibco BRL) were added to the S30 extracts used in the assay. Newly synthesized luciferase was detected by measuring bioluminescence for 60 s in a luininometer after the addition of 50 μl substrate buffer containing luciferine (20 mM Tricine/Cl pH 7.8, 2.67 mM MgSO4, 0.1 mM EDTA, 33.3 mM DTT, 0.27 mM Coenzyme A, 0.47 mM luciferine, 0.53 mM ATP).
(§2) The shape of the inhibition profiles is more or less similar for these compounds, in case of Streptomycin the lower IC50 value for S. aureus 133 compared to E. faecalis 27263 can be seen. templates pXyl-FF and pT7-FF with S30 extracts of the indicated bacterial strains. […] MIC (minimal inhibitory concentration) values were determined as described in Example 4. Numbers in square brackets relate to the unit in square brackets as given in the column heading.

Another assay deals with S. aureus 133. Briefly: Minimum inhibitory concentration, micro broth dilution. Format: cell-based. The settings on record: BHI medium, 24 h, 37° C. On the procedure:
(§3) MIC determinations were performed using the micro broth dilution method with an inoculum of 5×10^5 cfu/ml in BHI medium. Growth was read after 24 h of incubation at 37° C. Test compounds were dissolved in dimethyl sulfoxide and diluted to a concentration not higher than 2.5% dimethyl sulfoxide. For S. pneumoniae 1707/4 and E. faecalis 27263 16% bovine serum were added and incubated under microaerophilic conditions.

A further assay has as its system E. faecalis 27263. Described as above. Format: cell-based. The settings on record: BHI medium, 16% bovine serum, microaerophilic, 24 h, 37° C. On the procedure:
as §3

The subject of another assay is S. pneumoniae 1707/4. The assay is described as above. Type of assay: cell-based. The note with it: BHI medium, 16% bovine serum, microaerophilic, 24 h, 37° C. On the procedure: as §3
Assay [3] relates to S30 extracts from S. aureus 133. Briefly: Gram-positive in vitro coupled transcription/translation (T/T) assay, S. aureus S30 extract. Format: biochemical. On the procedure:
A procedure similar to the preparation of S30 extracts described by Murray et. al. (2) was used for S. aureus. Brain heart infusion (BHI) medium (6 l) was inoculated with 250 ml overnight culture of S. aureus 133 grown in BHI at 37° C. with agitation (170 rpm). Cells were cultured at 37° C. until an OD595nm of 2.5 was reached prior to centrifugation at 6000×g for 15 min at 4° C. Pellets were washed once with 500 ml cold S30-buffer A (10 mM Tris-acetate pH 8.0, 14 mM Mg-acetate, 1 mM DTT, 1 M KCl) and once with 250 ml of cold S30-buffer A containing 50 mM KCl. Pellets were frozen for 1 h at −20° C. or overnight at −70° C., thawed on ice and resuspended to a final volume of 99 ml buffer B (10 mM Tris-acetate pH 8.0, 20 mM Mg-acetate, 1 mM DTT, 50 mM KCl). A 1.5 ml aliquote of lysostaphin (0.8 mg/ml) in buffer B was added to each of three centrifuge tubes and 33 ml of the cell suspension were added. Samples were incubated at 37° C. for 1 h with gentle agitation prior to the addition of 150 μl 0.5 M DTT. Lysed cells were centrifuged for 30 min at 30,000×g at 4° C. and the resulting pellet was washed once with 33 ml S30-buffer B. The pooled supernatants were recentrifuged at 30,000×g for 30 min at 4° C. 100 ml of the supernatant were incubated with 25 ml preincubation buffer (670 mM Tris-acetate pH 8.0, 20 mM Mg-acetate, 7 mM Na3-PEP, 7 mM DTT, 5.5 mM ATP, 70 μM amino acids complete [Promega], 75 μg pyruvate kinase [Sigma]/ml) for 30 min at 37° C. to translate mRNAs. The preincubated supernatants were dialysed at 4° C. against 2 l of 10 mM Tris-acetate pH 8.0, 14 mM Mg-acetate, 1 mM DTT, 60 mM KCl with one buffer change using a Spectra-Por dialysis bag with a molecular weight cutoff of 3,500. The dialysate was gently concentrated by covering the dialysis bag with polyethylene glycol 8,000 powder (Sigma) at 4° C. to a protein concentration of ˜10 mg/ml. The resulting S30 extracts were flash frozen and stored in aliquots at −70° C.
as §1
MIC (minimal inhibitory concentration) values were determined as described in Example 4. Numbers in square brackets relate to the unit in square brackets as given in the column heading.

Assay [4] relates to S30 extracts from S. pneumoniae 1707/4. Briefly: Gram-positive in vitro coupled transcription/translation (T/T) assay, S. pneumoniae S30 extract. Type of assay: biochemical. On the procedure:
S. pneumoniae 1707/4 was grown overnight at 37° C. on agar plates containing 5% sheep blood under microaerophilic conditions. Cells were collected and inoculated into 4.8 l of BHI medium containing 5% bovine serum prior to cultivation at 37° C. under microaerophilic conditions for 5 h. S30 extracts were prepared as described for S. aureus 133 with some modifications. Cells were harvested and washed by centrifugation at 20,000×g for 15 min. The resulting cell pellet was resuspended in 20 ml buffer B, 3 mg lysozyme were added, incubated for 40 min at 37° C. prior to the addition of 75 μl 0.5 M DTT. The S30 sediment was washed with 8 ml buffer B and 7 ml preincubation buffer were added to the pooled supernatants.
as §1, §2

The mark [5] stands for this setting: template pT7-FF with T7 RNA polymerase, read-out: IC50.
Where [6] appears, read: template pT7-FF, value in square brackets.
The mark [7] stands for this setting: template pXyl-FF, read-out: IC50.
[8] abbreviates: template pXyl-FF, value in square brackets.
Setting [9] is: Staphylococcus aureus, 133, read-out: MIC.
[10] abbreviates: Enterococcus faecalis, 27263, read-out: MIC.
Where [11] appears, read: Streptococcus pneumoniae, 1707/4, read-out: MIC.
Setting [12] is: template pXyl-FF, 50% inhibition of in vitro translation of luciferase, read-out: IC50.

Molecules are shown by their SMILES. Converted amounts (≈) assume the structure as drawn. Where two headings read alike, the source gives them in different places. Some results are limits rather than exact numbers.

For the compound `CC1(C)S[C@@H]2[C@H](NC(=O)[C@H](N)c3ccccc3)C(=O)N2[C@H]1C(=O)O` [Ampicillin], in assay [1], the “inhibition in the in vitro coupled T/T assay” value was “no or only weak inhibition”. Further, the concentration for half-maximal inhibition (IC50) (usually the concentration that gives 50% inhibition) in assay [2] (setting [5]) is > 142 µM; in assay [2] (setting [6]) it was > 50 µg/mL; in assay [2] (setting [7]) it was > 142 µM; in assay [2] (setting [8]), > 50 µg/mL; in assay [3] (setting [5]), > 142 µM; in assay [3] (setting [6]) it was > 50 µg/mL. Also, the IC50 in assay [3] (setting [12]) is > 285 µM; in assay [3] (setting [8]), > 100 µg/mL; in assay [4] (setting [5]), > 285 µM; in assay [4] (setting [6]), > 100 µg/mL. In addition, the MIC (in general, the smallest concentration in the dilution series that meets the test's criterion for growth inhibition) in the assay with S. aureus 133 (setting [9]) came to 0.4 µg/mL (≈ 1.14 µM); in the assay with E. faecalis 27263 (setting [10]), 3.1 µg/mL (≈ 8.87 µM); in the assay with S. pneumoniae 1707/4 (setting [11]) it was 0.12 µg/mL (≈ 0.343 µM).
As for `O=C(N[C@H](CO)[C@H](O)c1ccc([N+](=O)[O-])cc1)C(Cl)Cl` [Chloramphenicol], the 50% inhibitory concentration (IC50) was 16.7 µM in assay [2] (setting [5]); 5.4 µg/mL in assay [2] (setting [6]); 14.9 µM in assay [2] (setting [7]); 4.8 µg/mL in assay [2] (setting [8]); 7.4 µM in assay [3] (setting [5]); 2.4 µg/mL in assay [3] (setting [6]). Further, the IC50 in assay [3] (setting [12]) was 9.3 µM; in assay [3] (setting [8]), 3.0 µg/mL; in assay [4] (setting [5]), 11.8 µM; in assay [4] (setting [6]), 3.8 µg/mL. Besides, the MIC in the assay with S. aureus 133 (setting [9]) is 4 µg/mL (≈ 12.4 µM); in the assay with E. faecalis 27263 (setting [10]) it was > 16 µg/mL; in the assay with S. pneumoniae 1707/4 (setting [11]), 4 µg/mL (≈ 12.4 µM).
For the compound `CC[C@H]1OC(=O)[C@H](C)[C@@H](O[C@H]2C[C@@](C)(OC)[C@@H](O)[C@H](C)O2)[C@H](C)[C@@H](O[C@@H]2O[C@H](C)C[C@H](N(C)C)[C@H]2O)[C@](C)(O)C[C@@H](C)C(=O)[C@H](C)[C@@H](O)[C@]1(C)O` [Erythromycin], the IC50 in assay [2] (setting [5]) is 0.4 µM; in assay [2] (setting [6]), 0.3 µg/mL; in assay [2] (setting [7]) it was 0.2 µM; in assay [2] (setting [8]), 0.15 µg/mL; in assay [3] (setting [5]) it was 0.2 µM; in assay [3] (setting [6]) it was 0.15 µg/mL. The IC50 turned out to be 0.2 µM in assay [3] (setting [12]), 0.15 µg/mL in assay [3] (setting [8]), 0.05 µM in assay [4] (setting [5]) and 0.04 µg/mL in assay [4] (setting [6]). Besides, the MIC with S. aureus 133 (setting [9]) is 0.1 µg/mL (≈ 0.136 µM); with E. faecalis 27263 (setting [10]), > 100 µg/mL; in the assay on S. pneumoniae 1707/4 (setting [11]), 0.1 µg/mL (≈ 0.136 µM).
As to `CC(=O)NC[C@H]1CN(c2ccc(N3CCOCC3)c(F)c2)C(=O)O1` [Linezolid], the IC50 in assay [2] (setting [5]) is 3.4 µM; in assay [2] (setting [6]), 1.0 µg/mL; in assay [2] (setting [7]), 3.1 µM; in assay [2] (setting [8]), 0.9 µg/mL; in assay [3] (setting [5]), 4.1 µM; in assay [3] (setting [6]) it was 1.2 µg/mL. For the same compound, the 50% inhibitory concentration (IC50) in assay [3] (setting [12]) is 4.1 µM; in assay [3] (setting [8]) it was 1.2 µg/mL; in assay [4] (setting [5]), 5.8 µM; in assay [4] (setting [6]) it was 1.7 µg/mL. The MIC in the assay on S. aureus 133 (setting [9]) came to 2 µg/mL (≈ 5.93 µM); in the assay with E. faecalis 27263 (setting [10]), 2 µg/mL (≈ 5.93 µM); in the assay on S. pneumoniae 1707/4 (setting [11]), 1 µg/mL (≈ 2.96 µM).
As for `[H]/N=C(/N)N[C@H]1[C@H](O)[C@@H](O)[C@H](O[C@@H]2O[C@@H](C)[C@](O)(C=O)[C@H]2O[C@@H]2O[C@@H](CO)[C@H](O)[C@@H](O)[C@@H]2NC)[C@@H](N/C(N)=N\[H])[C@@H]1O` [Streptomycin], the half-inhibitory concentration (IC50) in assay [2] (setting [5]) was 0.41 µM; in assay [2] (setting [6]) it was 0.6 µg/mL; in assay [2] (setting [7]) it was 0.48 µM; in assay [2] (setting [8]), 0.7 µg/mL; in assay [3] (setting [5]), 0.02 µM; in assay [3] (setting [6]), 0.03 µg/mL. Besides, the IC50 in assay [3] (setting [12]) came to 0.05 µM; in assay [3] (setting [8]), 0.07 µg/mL; in assay [4] (setting [5]), 0.01 µM; in assay [4] (setting [6]) it was 0.02 µg/mL. Besides, the MIC was 6.25 µg/mL (≈ 10.7 µM) with S. aureus 133 (setting [9]), > 100 µg/mL with E. faecalis 27263 (setting [10]) and > 100 µg/mL in the assay with S. pneumoniae 1707/4 (setting [11]).
For the compound `CN(C)[C@@H]1C(=O)C(C(N)=O)=C(O)[C@@]2(O)C(=O)C3=C(O)c4c(O)cccc4[C@@](C)(O)[C@H]3C[C@@H]12` [Tetracyclin], the IC50 came to 2.3 µM in assay [2] (setting [5]); 1.0 µg/mL in assay [2] (setting [6]); 1.8 µM in assay [2] (setting [7]); 0.8 µg/mL in assay [2] (setting [8]); 0.6 µM in assay [3] (setting [5]); 0.25 µg/mL in assay [3] (setting [6]). Moreover, the concentration for half-maximal inhibition (IC50) was 0.9 µM in assay [3] (setting [12]), 0.4 µg/mL in assay [3] (setting [8]), 0.45 µM in assay [4] (setting [5]) and 0.2 µg/mL in assay [4] (setting [6]). For the same compound, the MIC against S. aureus 133 was 0.05 µg/mL (≈ 0.113 µM); against E. faecalis 27263 it was >100 µg/mL; in the assay with S. pneumoniae 1707/4, 0.2 µg/mL (≈ 0.45 µM).
